Earlier results, collected in patent US5283250A, “Quinolinyl/quinolinylalkyl-N-terminal amino hydroxy” (G. D. Searle & Co., priority 1991, dated 1994).
Square brackets hold non-standard residues; d marks the D form. Peptide text beside a SMILES is read from it. * marks the point of attachment. Sta = CC(C)C[C@H](N)[C@@H](O)CC(=O)O; Isovaleryl = CC(C)CC(=O)*

What was measured:
hog renin = settings: after injection of hog renin into nephrectomized rats; Gross et al 1971
pepsin = settings: Umezawa et al 1970
cathepsin D = settings: Umezawa et al 1970
renin = settings: Umezawa et al 1970

CC(C)CC(=O)N[C@H](C(=O)N[C@H](C(=O)N[C@@H](CC(C)C)[C@@H](O)CC(=O)N[C@@H](C)C(=O)N[C@@H](CC(C)C)[C@@H](O)CC(=O)O)C(C)C)C(C)C [pepstatin] (Isovaleryl-VV[Sta]A[Sta]-OH)
blood pressure in vivo (in words) (hog renin): reduce blood pressure in vivo
inhibition of pepsin (in words) (pepsin): inhibitor
inhibition of cathepsin D (in words) (cathepsin D): inhibitor
inhibition of renin (in words) (renin): inhibitor
inhibition of acid proteases in addition to renin (in words) (acid proteases): inhibiting acid proteases in addition to renin
